From patent publication US4603209A, “Fluorescent indicator dyes for calcium ions” (priority 1984, dated 1986)
Where two headings read alike, the source gives them in different places.

Columns and labels:
[1] = cited from earlier work
[2] = Ca2+ titration of dye fluorescence in Ca-EGTA buffers; format: binding; settings: for Kd: read-out: Apparent Kd for Ca^2+
Protocol: The excitation bandwidth was 1.9 nm, the emission was collected at 510 nm with 4.6 nm bandwidth, and the spectra were automatically corrected for excitation lamp and monochromator characteristics using a rhodamine B quantum counter. The titration was done starting with 5 ml of 100 mM KCl, 10 mM KMOPS, 10 mM K2 H2 EGTA, 1 microM fura-2, adjusting the pH to 7.20, recording the spectrum, then discarding 0.5 ml of this solution and replacing with 0.5 ml of 100 mM KCl, 10 mM KMOPS, 10 mM K2 CaEGTA, 1 microM fura-2, readjusting the pH to 7.20, and recording the spectrum which was then in 9 mM K2 H2 EGTA and 1 mM K2 CaEGTA. Subsequent iterations to reach n mM CaEGTA, (10-n) mM EGTA, n=2-10, were done by discarding 5.0/(11-n) ml and replacing with equal volumes of the 10 mM K2 CaEGTA -1 microM fura-2 stock. After n=10 had been reached to give a free Ca^2+ between 10^-4 and 10^-5 M, addition of 1 mM CaCl2 had no further effect on the spectrum. Equality of Ca and EGTA contents in the K2 CaEGTA solution was insured by titration of K2 H2 EGTA with CaCl2 to the potentiometric endpoint measured with a Ca^2+ -selective electrode. EGTA was Fluka Chemical "puriss" grade.
The dye, 6 microM, was titrated in 115 mM KCl, 20 mM NaCl, 10 mM MOPS, 1.115 mM MgCl2, 1.115 mM K2 H2 EGTA, KOH to pH 7.050±0.004, 37° C., to which small aliquots of K2 CaEGTA were added from a micrometer syringe to raise free Ca^2+ to the values labeling each curve, in units of nM unless otherwise specified. Excitation was at 355 nm, and both excitation and emission were set to 5 nm bandwidth. These spectra are not corrected for the emission sensitivity characteristics of the Perkin Elmer MPF-44; in particular the notch at 465 nm is an instrumental artifact. Corrected emission spectra show the low-Ca 485 nm peak to be of very similar amplitude to the high-Ca 404 nm peak when excitation is at 355-356 nm.
Free [Ca^2+ ] levels were controlled by Ca-EGTA buffers assuming apparent dissociation constants for Ca-EGTA of 380 nM at pH 7.00 in 0.1M KCl, 20° C.; 151 nM at pH 7.20 in 0.1M KCl, 20° C.; 214 nM at pH 7.05 in 130 mM KCl, 20 mM NaCl at 37° C.; and 490 nM at pH 7.02 in 225 mM KCl, 25 mM NaCl at 18° C. The first three apparent dissociation constants were calculated from the tables of Martell & Smith (see reference 11) as discussed in referencess 1 and 12. The last value was freshly determined in this study because no appropriate absolute constants were available at the higher ionic strength, and existing estimates in the biological literature (see references 13-17) vary by an unacceptably large range, >0.5 log unit. For this determination we chose the classic and reliable method of pH titration in the presence and absence of excess metal ion (see references 18). Details are included in the METHODS OF SYNTHESIS section, supra.
Dissociation constants for the new indicators disclosed herein, as exemplified by chelators stil-1, stil-2, indo-1, fura-1, fura-2 and fura-3 (see Table I, infra), are in the range 100-300 nM at ionic strengths near 0.1 to 0.15. Such values are close to the dissociation constant (110 nM) of the parent compound BAPTA (see reference 6), showing that the substituents that make up the rest of the chromophores are only slightly electron-withdrawing. […] A considerable decrease in Ca^2+ binding strength is observed, to an apparent dissociation constant of 760 nM. Such a strong dependence on ionic strength is not surprising for the reaction of a tetravalent anion with a divalent cation.
where Kd is the effective dissociation constant. The fluorescence ratio R is the ratio [formula] Solving for [Ca^2+ ] yields the calibration equation: [formula] Note that FA1 /FA2 is simply the limiting value that R can have at zero [Ca^2+ ] and so may be considered Rmin, while FB1 /FB2 is the analogous limiting Rmax that the ratio has at saturating [Ca^2+ ]. […]

[3] = reference 26; cited from earlier work
[4] = cited from earlier work; remark: listed apart in the source
[5] = reference 26; cited from earlier work; remark: listed apart in the source
[6] = Direct competition between Fe2+ and Ca2+, quenching of dye fluorescence; format: binding; settings: 100 mM KCl, 10 mM KMOPS, pH 7.2, under nitrogen
Protocol: (§1) Since Mn^2+ and Fe^2+ quench fura-2, the affinities for these ions relative to Ca^2+ could be assessed by direct competition between the metal ions each in stoichiometric excess. […] Fluorescences of 0.5 microM fura-2 at room temperature were recorded in solutions containing 100 mM KCl, 10 mM KMOPS, pH 7.2. One series also contained 0, 0.1, or 1 mM MnSO4 and 0, 1.1, 2.2, 4.4, or 8.8 mM CaCl2; another series had 2 mM CaCl2 and 0, 0.1, 0.2, 0.5, 1, 2 mM Fe(NH4)2 (SO4)2; and a third series with 0.2 mM Fe(NH4)2 (SO4)2 and 0, 0.2, 0.4, 0.8, 2, 4, and 8 mM CaCl2. Measurements with Fe(II) were made in a cuvet sealed by a septum and continually bubbled with nitrogen; the solutions stayed clear and nearly colorless until the septum was removed after the end of the experiment, whereupon deposition of yellow Fe(OH)3 followed rapidly.
(§2) Binding of fura-2 to some of the physiologically more important heavy divalent metals was also briefly examined. Both stil-1 and fura-2 bind zinc with dissociation constants around 1.6-2 nM (pKZn 8.6-8.8). […] Curiously Zn^2+ shifts the fura-2 spectrum the same way that Ca^2+ does, whereas Zn^2+ quenches quin2 and therefore acts oppositely to Ca^2+. Fura-2 is also better than quin2 in rejecting Mn^2+, the Mn^2+ :Ca^2+ preferences being 42-fold and 510-fold respectively (see reference 26). […]

[7] = Mg2+ titration of dye excitation spectrum in Mg-EGTA buffers; format: binding; settings: 0.1-0.15M ionic strength, read-out: Mg^2+ dissociation constant
Protocol: An excitation spectrum was recorded of 2 microM fura-2 in 2.5 ml 32 mM KCl, 1 mM EGTA, 10 mM MOPS, adjusted with KOH to pH 7.18 while thermostatted at 20° C. Then 25 microliters of this solution was discarded and replaced by 25 microliters of a solution containing 2 microM fura-2, 104.8 mM MgCl2, 5.8 mM EGTA, 10 mM MOPS, adjusted with KOH to pH 7.18. Since both stocks had 1 mM free EGTA but the latter had 100 mM free Mg, the 99:1 v/v composite went to 1.0 mM free Mg^2+. Further iterations attained 2, 5, 10, and 20 mM free Mg^2+ by successively discarding 25.25, 76.53, 131.6, and 277.8 microliters of the mixture and replacing each with an equal volume of the high-Mg stock. Emission was collected at 510 nm, 4.6 nm bandpass, and excitation 0.9 nm bandpass.
Free [Mg^2+ ] was likewise controlled by Mg-EGTA buffers assuming an apparent dissociation constant for Mg-EGTA of 21 mM at pH 7.18 in 130 mM KCl at 20°, 8.96 mM at pH 7.05 in 130 mM KCl, 20 mM NaCl at 37°, and 99 mM at pH 7.02 in 225 mM KCl, 25 mM NaCl at 18°. Again, the last value was freshly determined in this study.
Binding constants for competing cations were most thoroughly explored for fura-2. […] Therefore fura-2 binds Mg^2+ less strongly than does quin2, whose Mg^2+ dissociation constants are about 1 mM and 2 mM respectively at 37° and ca. 22° (see references 6 and 7). […]

[8] = Direct competition between Mn2+ and Ca2+, quenching of dye fluorescence; format: binding; settings: 100 mM KCl, 10 mM KMOPS, pH 7.2, room temperature
Protocol: as §1, §2

[9] = Zn2+ titration of dye fluorescence in Zn-EGTA buffer, Hill plots; format: binding; settings: for pKZn / Kd: 120 mM KCl, pH 7.12, room temperature; for Kd: read-out: dissociation constant for zinc
Protocol: Heavy metal binding constants were measured as follows. Affinities of stil-1 and fura-2 for Zn^2+ were measured by titrating 1-2 microM dye in 120 mM KCl, 5 mM K2 H2 EGTA, 10 mM MOPS, 5 mM Tris, with 1M ZnCl2 dispensed from a micrometer syringe. […] (see reference 11).
Binding of fura-2 to some of the physiologically more important heavy divalent metals was also briefly examined. Both stil-1 and fura-2 bind zinc with dissociation constants around 1.6-2 nM (pKZn 8.6-8.8). […] Curiously Zn^2+ shifts the fura-2 spectrum the same way that Ca^2+ does, whereas Zn^2+ quenches quin2 and therefore acts oppositely to Ca^2+. Fura-2 is also better than quin2 in rejecting Mn^2+, the Mn^2+ :Ca^2+ preferences being 42-fold and 510-fold respectively (see reference 26). […] A more precise estimate was prevented by experimental scatter, which may reflect more complicated stoichiometry than 1:1 or imperfectly anaerobic conditions. Both Mn^2+ and Fe^2+ quench fura-2 as expected for metals with many unpaired electrons. For comparison, EGTA prefers Zn^2+, Mn^2+, and Fe^2+ to Ca^2+, by factors of ca. 50, ca. 20, and ca. 8-fold respectively (see reference 11).

[10] = 115 mM KCl, 20 mM NaCl, 10 mM KMOPS, pH 7.05, 1 mM free Mg^2+, 37° C.

O=C(O)CN(CC(=O)O)c1ccccc1OCCOc1ccccc1N(CC(=O)O)CC(=O)O [BAPTA, 1,2-bis(2-aminophenoxy)ethane N,N,N',N'-tetraacetic acid]
Kd ([1]; parent compound, reference 6, read-out: dissociation constant (Ca^2+)): 0.11 µM | Kd ([1]; reference 6, read-out: Kd (Ca^2+)): 0.1 µM

Cc1ccc(N(CC(=O)O)CC(=O)O)c(OCCOc2cc3cc(-c4ccc(C#N)cc4)oc3cc2N(CC(=O)O)CC(=O)O)c1 [fura-3, 1-(2-(4-cyanophenyl)-6-aminobenzofuran-5-oxy)-2-(2'-amino-5'-methylphenoxy)ethane-N,N,N',N'-tetraacetic acid]
Kd [2, 10]: 0.14 µM

Cc1ccc(N(CC(=O)O)CC(=O)O)c(OCCOc2cc(/C=C/c3ccc(S(=O)(=O)N(C)C)cc3)ccc2N(CC(=O)O)CC(=O)O)c1 [stil-2]
Kd ([2]; 100 mM KCl, 37° C., pH 7.08, cis-trans mixture as saponified): 0.224 µM

Cc1ccc(N(CC(=O)O)CC(=O)O)c(OCCOc2cc(-c3cc4ccc(C(=O)O)cc4[nH]3)ccc2N(CC(=O)O)CC(=O)O)c1 [indo-1, 1-(2-amino-5-[6-carboxyindolyl-2]-phenoxy)-2-(2'-amino-5'-methylphenoxy)ethane-N,N,N',N'-tetraacetic acid]
Kd from ratio calibration equation 5 ([2]; FIG. 4 data, emission 400 nm / 490 nm, 115 mM KCl, 20 mM NaCl, pH 7.050, 37° C.): 0.25 µM

COc1cc(N(CC(=O)O)CC(=O)O)c2nc(COc3cc(C)ccc3N(CC(=O)O)CC(=O)O)ccc2c1 [quin-2]
Zn^2+:Ca^2+ preference [3]: 3.5 orders of magnitude | Kd ([1]; 100 mM KCl, 20° C., pH 7.1-7.2, data taken from reference 4, read-out: Apparent Kd for Ca^2+): 0.08 µM | Kd ([4]; 37°, references 6 and 7, read-out: Mg^2+ dissociation constant): ~1000 µM | Kd ([4]; background statement, read-out: dissociation constant for Mg^2+): 1000 to 2000 µM | Kd ([4]; ca. 22°, references 6 and 7, read-out: Mg^2+ dissociation constant): ~2000 µM | Mn^2+:Ca^2+ preference [5]: 510 fold

Cc1ccc(N(CC(=O)O)CC(=O)O)c(OCCOc2cc3cc(-c4ncc(C(=O)O)o4)oc3cc2N(CC(=O)O)CC(=O)O)c1 [fura-2, 1-(2-(5'-carboxyoxazol-2'-yl)-6-aminobenzofuran-5-oxy)-2-(2'-amino-5'-methylphenoxy)ethane-N,N,N',N'-tetraacetic acid]
Fe^2+ binding strength relative to Ca^2+ [6]: between three and ten time | Kd ([7]; 20°): ~9800 µM | Kd ([7]; 37° C.): ~5600 µM | Mn^2+:Ca^2+ preference [8]: 42 fold | Zn^2+:Ca^2+ preference [9]: two orders of magnitude | pKZn [9]: 8.6-8.8 | Kd [9]: 0.0016 to 0.002 µM

Cc1ccc(N(CC(=O)O)CC(=O)O)c(OCCOc2cc3cc(-c4ccc(C(=O)O)cc4)oc3cc2N(CC(=O)O)CC(=O)O)c1 [fura-1, 1-(2-(4-carboxyphenyl)-6-amino-benzofuran-5-oxy)-2-(2'-amino-5'-methylphenoxy)ethane-N,N,N',N'-tetraacetic acid]
Kd [2, 10]: 0.107 µM

Cc1ccc(N(CC(=O)O)CC(=O)O)c(OCCOc2cc(/C=C/c3ccc(C(=O)O)cc3)ccc2N(CC(=O)O)CC(=O)O)c1 [stil-1]
Kd ([2]; 100 mM KCl, 20° C., pH 7.1-7.2): 0.132 µM | Kd [2, 10]: 0.2 µM | Zn^2+:Ca^2+ preference [9]: two orders of magnitude | pKZn [9]: 8.6-8.8 | Kd [9]: 0.0016 to 0.002 µM
